Literature values in US20070213388A1, “Acetylcholinesterase Inhibitors and N-Methyl-D-Aspartate Antagonists Useful in the Treatment of Cognitive Disorders” (priority 2004, published 2007).

What was measured:
cholinesterase = details: see WO 00/248150
[1] = rats, i.v. dosing
AChE = target: T1, AChE (Rattus norvegicus, UniProt P37136); details: rats, after phenserine administration
T1 construct: from tissue; host or cells: rat
T1 sequence (P37136 32-614): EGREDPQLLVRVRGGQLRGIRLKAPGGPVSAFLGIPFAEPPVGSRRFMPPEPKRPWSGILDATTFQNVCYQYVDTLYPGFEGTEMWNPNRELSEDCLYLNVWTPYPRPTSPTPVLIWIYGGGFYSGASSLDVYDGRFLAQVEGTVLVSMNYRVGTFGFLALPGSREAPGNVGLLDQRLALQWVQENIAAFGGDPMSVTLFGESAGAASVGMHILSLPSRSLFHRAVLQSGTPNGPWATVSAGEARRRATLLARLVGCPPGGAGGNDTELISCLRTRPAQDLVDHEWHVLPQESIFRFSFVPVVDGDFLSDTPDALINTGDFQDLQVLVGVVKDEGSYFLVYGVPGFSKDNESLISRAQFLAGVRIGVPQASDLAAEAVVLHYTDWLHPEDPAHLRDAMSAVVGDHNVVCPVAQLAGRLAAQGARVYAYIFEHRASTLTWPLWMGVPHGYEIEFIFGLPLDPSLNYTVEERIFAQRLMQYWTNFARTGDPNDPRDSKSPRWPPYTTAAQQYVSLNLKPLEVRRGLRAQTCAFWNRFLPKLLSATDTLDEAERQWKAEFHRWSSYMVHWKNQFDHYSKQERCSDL

brain ACh levels = details: conscious, freely-moving rats, striatal microdialysis
[2] = target: neuronal receptors (NMDA receptor); details: at -67 mV
[3] = tested on: cytochrome P450 (CYP 450) isoenzymes; details: in vitro
[4] = not given; remark: listed apart in the source

## CN1CC[C@@]2(C)c3cc(OC(=O)Nc4ccccc4)ccc3N(C)C12 (single isomer, unassigned; (+)) [(+)-phenserine]
cholinesterase
  cholinesterase activity: lacks cholinesterase activity

## CN1CC[C@]2(C)c3cc(OC(=O)Nc4ccccc4)ccc3N(C)C12 (single isomer, unassigned; (-)) [phenserine, (−)-N-phenylcarbamoyl eseroline]
[1]
  brain drug levels relative to plasma: 10 fold
  time to peak drug levels: ≤ 5 min
[1]; brain
  half-life of brain drug levels: 8.5 min
[1]; plasma
  half-life of plasma drug levels: 12.6 min
AChE
  inhibition of AChE: > 70%
Brain ACh levels
  rise in brain ACh levels: greater than 3 fold

## CC12CC3CC(C)(C1)CC(N)(C3)C2.Cl [memantine, 1-amino-3,5-dimethyladamantane hydrochloride]
[2]
  IC50: 1400 nM
Crosses the blood brain barrier
  CSF/serum ratio: 0.52
humans, oral dose
  terminal elimination half-life: 60 to 80 h
[3]
  inhibition of cytochrome P450 (CYP 450) isoenzymes: does not inhibit
[4]
  water solubility: water soluble
